We go through three molecules from ChEMBL document CHEMBL5715954, “Silencing c-Myc translation as a therapeutic strategy through targeting PI3Kδ and CK1ε in hematological malignancies” (Blood, 2017).

What all share (set-up): scale not given: the % may be the effect or the level left
The target in assay [1] is T1, Serine/threonine-protein kinase TAO3 (Homo sapiens) (UniProt Q9H2K8).
T1 sequence (whole entry): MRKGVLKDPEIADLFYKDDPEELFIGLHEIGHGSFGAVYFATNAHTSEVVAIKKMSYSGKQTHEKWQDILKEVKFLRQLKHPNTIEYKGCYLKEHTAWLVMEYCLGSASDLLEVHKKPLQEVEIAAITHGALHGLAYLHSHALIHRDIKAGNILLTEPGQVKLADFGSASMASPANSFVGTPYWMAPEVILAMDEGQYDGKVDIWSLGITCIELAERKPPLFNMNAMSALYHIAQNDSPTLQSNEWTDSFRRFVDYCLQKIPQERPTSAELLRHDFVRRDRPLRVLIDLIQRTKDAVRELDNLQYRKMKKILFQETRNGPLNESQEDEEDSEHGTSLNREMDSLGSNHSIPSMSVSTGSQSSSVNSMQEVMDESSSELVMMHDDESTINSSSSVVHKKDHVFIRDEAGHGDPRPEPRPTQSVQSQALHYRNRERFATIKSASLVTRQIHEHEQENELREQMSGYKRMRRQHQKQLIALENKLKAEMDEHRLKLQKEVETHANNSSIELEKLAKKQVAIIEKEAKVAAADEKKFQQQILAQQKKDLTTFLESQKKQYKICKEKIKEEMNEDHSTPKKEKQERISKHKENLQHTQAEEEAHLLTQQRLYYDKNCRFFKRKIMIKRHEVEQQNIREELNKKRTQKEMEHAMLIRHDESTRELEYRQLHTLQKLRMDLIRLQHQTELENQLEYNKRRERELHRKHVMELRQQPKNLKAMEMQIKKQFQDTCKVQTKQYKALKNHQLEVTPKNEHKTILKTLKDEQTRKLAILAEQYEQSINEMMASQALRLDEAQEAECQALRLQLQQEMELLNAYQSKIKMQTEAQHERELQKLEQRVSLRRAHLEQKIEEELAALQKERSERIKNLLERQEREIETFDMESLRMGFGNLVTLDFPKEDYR
The assay is described as follows: Inhibition of human TAOK3 assessed as enzyme activity at 1 uM using myelin basic protein as substrate preincubated for 20 mins followed by [gamma-33P]-ATP addition and measured after 120 mins by radiometric Hot-SpotSM Kinase assay relative to control.

Assay [2] has as its target Protein kinase C alpha type (Homo sapiens) (UniProt P17252). Briefly: Inhibition of human PKCa assessed as enzyme activity at 1 uM using ERMRPRKRQGSVRRRV as substrate preincubated for 20 mins followed by [gamma-33P]-ATP addition and measured after 120 mins by radiometric Hot-SpotSM Kinase assay relative to control.
Assay [3] has as its target RAC-gamma serine/threonine-protein kinase (Homo sapiens) (UniProt Q9Y243). Briefly: Inhibition of human AKT3 assessed as enzyme activity at 1 uM using KGSGSGRPRTSSFAEG as substrate preincubated for 20 mins followed by [gamma-33P]-ATP addition and measured after 120 mins by radiometric Hot-SpotSM Kinase assay relative to control.
In assay [4] the target is Dual specificity tyrosine-phosphorylation-regulated kinase 1B (Homo sapiens) (UniProt Q9Y463). The assay is described as follows: Inhibition of human DYRK1B assessed as enzyme activity at 1 uM using RRRFRPASPLRGPPK as substrate preincubated for 20 mins followed by [gamma-33P]-ATP addition and measured after 120 mins by radiometric Hot-SpotSM Kinase assay relative to control.

In assay [5] the target is T2, Myosin-IIIb (Homo sapiens) (UniProt Q8WXR4).
T2 sequence (whole entry): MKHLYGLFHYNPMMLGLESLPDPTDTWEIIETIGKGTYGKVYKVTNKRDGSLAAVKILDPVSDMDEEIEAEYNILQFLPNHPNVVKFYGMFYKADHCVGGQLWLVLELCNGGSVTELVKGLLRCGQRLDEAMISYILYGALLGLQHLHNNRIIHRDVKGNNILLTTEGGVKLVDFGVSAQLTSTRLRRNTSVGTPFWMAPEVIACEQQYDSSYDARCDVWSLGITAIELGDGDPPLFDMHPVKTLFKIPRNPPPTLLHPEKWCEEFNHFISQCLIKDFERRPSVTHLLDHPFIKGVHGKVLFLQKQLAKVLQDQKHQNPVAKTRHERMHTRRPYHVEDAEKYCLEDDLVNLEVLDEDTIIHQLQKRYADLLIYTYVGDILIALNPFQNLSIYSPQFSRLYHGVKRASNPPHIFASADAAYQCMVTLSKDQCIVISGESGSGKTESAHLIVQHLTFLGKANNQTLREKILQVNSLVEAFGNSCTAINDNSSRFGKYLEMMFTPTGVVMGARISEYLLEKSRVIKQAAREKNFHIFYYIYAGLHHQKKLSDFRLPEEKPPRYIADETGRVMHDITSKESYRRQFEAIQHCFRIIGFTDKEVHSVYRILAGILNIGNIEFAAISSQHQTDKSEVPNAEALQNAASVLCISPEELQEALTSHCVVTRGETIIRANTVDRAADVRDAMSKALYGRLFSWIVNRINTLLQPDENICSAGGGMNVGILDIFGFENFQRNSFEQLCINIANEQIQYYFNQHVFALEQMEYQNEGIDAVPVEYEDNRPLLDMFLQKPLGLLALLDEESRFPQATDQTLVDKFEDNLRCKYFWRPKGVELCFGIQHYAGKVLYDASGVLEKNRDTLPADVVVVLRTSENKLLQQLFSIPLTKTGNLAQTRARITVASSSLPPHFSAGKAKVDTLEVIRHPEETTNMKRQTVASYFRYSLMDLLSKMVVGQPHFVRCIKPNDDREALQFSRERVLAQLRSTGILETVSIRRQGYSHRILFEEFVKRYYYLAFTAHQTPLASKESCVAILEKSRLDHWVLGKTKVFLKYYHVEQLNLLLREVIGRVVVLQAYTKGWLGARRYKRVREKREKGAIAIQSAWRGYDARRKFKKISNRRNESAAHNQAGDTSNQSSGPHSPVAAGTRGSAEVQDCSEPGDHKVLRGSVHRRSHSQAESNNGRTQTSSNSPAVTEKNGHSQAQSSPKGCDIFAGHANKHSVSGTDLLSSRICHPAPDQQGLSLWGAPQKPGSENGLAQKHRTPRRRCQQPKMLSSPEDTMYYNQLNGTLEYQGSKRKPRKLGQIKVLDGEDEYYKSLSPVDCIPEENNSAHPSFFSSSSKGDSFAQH
The assay is described as follows: Inhibition of human MYO3b assessed as enzyme activity at 1 uM using myelin basic protein as substrate preincubated for 20 mins followed by [gamma-33P]-ATP addition and measured after 120 mins by radiometric Hot-SpotSM Kinase assay relative to control.

Sequence of RAC-gamma serine/threonine-protein kinase (Homo sapiens) (Q9Y243 whole entry): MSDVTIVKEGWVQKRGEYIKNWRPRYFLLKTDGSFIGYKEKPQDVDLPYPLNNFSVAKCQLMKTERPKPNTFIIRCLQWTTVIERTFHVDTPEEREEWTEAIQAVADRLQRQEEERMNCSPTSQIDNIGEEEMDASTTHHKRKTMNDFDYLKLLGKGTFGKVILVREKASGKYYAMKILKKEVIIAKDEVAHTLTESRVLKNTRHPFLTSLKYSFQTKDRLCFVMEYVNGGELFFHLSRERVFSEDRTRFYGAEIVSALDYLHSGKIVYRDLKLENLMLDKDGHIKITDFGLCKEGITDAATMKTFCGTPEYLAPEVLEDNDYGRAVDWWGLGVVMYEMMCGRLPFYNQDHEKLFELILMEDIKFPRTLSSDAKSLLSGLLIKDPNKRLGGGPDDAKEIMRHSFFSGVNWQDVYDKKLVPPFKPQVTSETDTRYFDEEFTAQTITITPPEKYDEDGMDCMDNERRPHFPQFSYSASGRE
Sequence of Dual specificity tyrosine-phosphorylation-regulated kinase 1B (Homo sapiens) (Q9Y463 whole entry, looked up): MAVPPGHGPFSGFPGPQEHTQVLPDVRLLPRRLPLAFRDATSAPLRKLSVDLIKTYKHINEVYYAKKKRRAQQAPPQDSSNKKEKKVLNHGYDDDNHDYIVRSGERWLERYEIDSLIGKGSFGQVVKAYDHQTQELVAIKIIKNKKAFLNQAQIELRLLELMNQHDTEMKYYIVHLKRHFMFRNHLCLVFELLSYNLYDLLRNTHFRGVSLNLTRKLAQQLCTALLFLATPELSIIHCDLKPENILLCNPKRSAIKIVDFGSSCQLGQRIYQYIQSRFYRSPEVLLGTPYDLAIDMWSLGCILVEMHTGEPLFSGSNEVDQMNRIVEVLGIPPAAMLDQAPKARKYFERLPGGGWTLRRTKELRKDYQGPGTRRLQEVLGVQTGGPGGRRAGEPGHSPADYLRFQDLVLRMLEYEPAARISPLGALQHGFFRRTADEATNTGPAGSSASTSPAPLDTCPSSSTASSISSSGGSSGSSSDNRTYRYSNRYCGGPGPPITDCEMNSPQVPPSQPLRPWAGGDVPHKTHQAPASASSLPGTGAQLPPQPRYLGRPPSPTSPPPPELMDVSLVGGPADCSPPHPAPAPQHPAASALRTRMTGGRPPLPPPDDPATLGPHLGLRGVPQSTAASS

Regarding `C[C@H](Nc1ncnc2nc[nH]c12)c1cc2cccc(Cl)c2c(=O)n1-c1ccccc1`, the Activity in assay [1] was 106%; in assay [2], 116%; in assay [3] it was 99.8%; in assay [4] it was 99.8%; in assay [5], 114%.
Turning to `CC[C@H](Nc1ncnc2[nH]cnc12)c1nc2cccc(F)c2c(=O)n1-c1ccccc1`, the Activity in assay [1] stood at 98.6%; in assay [2] it was 103%; in assay [3] it was 102%; in assay [4], 99.2%; in assay [5], 93.5%.
Taken in the same sequence, the figures for `CC(C)Oc1ccc(-c2nn([C@@H](C)c3oc4ccc(F)cc4c(=O)c3-c3cccc(F)c3)c3ncnc(N)c23)cc1F` [UMBRALISIB] were 106%, 114%, 100%, 96.2% and 121%.
